Reference: publication PMC9463489 (Journal of Pharmaceutical Analysis, 2022)
“And” between values parts separate entries of the source, which are not always exact repeats. Equal entries are not always repeated.

Tests used:
[1] = molecular target: T1, human pancreatic lipase (hPL) (Homo sapiens, UniProt P16233); assay: fluorescence-based hPL inhibition assay; format: biochemical; conditions: 4-MUO 5 μM, 37 °C, 20 min; for IC50: pIC50, hPL-catalyzed 4-MUO hydrolysis; for pIC50: hPL-catalyzed 4-MUO hydrolysis
T1 sequence (P16233 17-465): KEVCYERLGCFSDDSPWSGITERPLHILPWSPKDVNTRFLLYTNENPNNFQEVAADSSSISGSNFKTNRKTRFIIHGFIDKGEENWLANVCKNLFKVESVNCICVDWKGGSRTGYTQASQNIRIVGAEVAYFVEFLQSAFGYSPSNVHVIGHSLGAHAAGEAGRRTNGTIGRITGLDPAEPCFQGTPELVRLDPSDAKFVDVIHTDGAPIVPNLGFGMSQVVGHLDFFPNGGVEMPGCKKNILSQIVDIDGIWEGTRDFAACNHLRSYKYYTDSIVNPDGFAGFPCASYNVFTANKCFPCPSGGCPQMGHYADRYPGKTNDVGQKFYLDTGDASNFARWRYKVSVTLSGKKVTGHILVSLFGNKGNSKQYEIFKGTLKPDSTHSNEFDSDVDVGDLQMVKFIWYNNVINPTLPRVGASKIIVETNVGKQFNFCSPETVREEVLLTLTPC

α-glucosidase = conditions: ref [50], [51], [52]; cited from earlier work
[2] = molecular target: T1, human pancreatic lipase (hPL); assay: inhibition kinetics against hPL-catalyzed 4-MUO hydrolysis; format: biochemical; conditions: for Inhibition mode: Lineweaver-Burk and secondary plots

| Compound | IC50 [1] | further results |
| --- | --- | --- |
| O=C(O[C@@H]1Cc2c(O)cc(O)cc2O[C@@H]1c1ccc(O)c(O)c1)c1cc(O)c(O)c(O)c1 [ECG, epicatechin gallate] | 162 nM | inhibitory effects against α-glucosidase (α-glucosidase): strong inhibitory effects |
| Oc1cc(O)c2c(c1)O[C@H](c1ccc(O)c(O)c1)[C@H](O)C2 [Epicatechin, epicatechin] | > 100000 nM | – |
| O=C1C[C@@H](c2ccc(O)c(O)c2)Oc2cc(O)cc(O)c21 [Eriodictyol, eriodictyol] | > 100000 nM | – |
| COc1cc(/C=C/C(=O)O)ccc1O [Ferulic acid, ferulic acid] | – | pIC50 [1]: <4 |
| O=c1c(O)c(-c2ccc(O)cc2)oc2cc(O)cc(O)c12 [Kaempferol, kaempferol] | 27500 nM | – |
| O=c1cc(-c2ccc(O)c(O)c2)oc2cc(O)cc(O)c12 [Luteolin, luteolin] | 776 nM | inhibitory effects against α-glucosidase (α-glucosidase): strong inhibitory effects |
| O=c1cc(-c2ccc(O)c(O)c2)oc2cc(O[C@@H]3O[C@H](CO)[C@@H](O)[C@H](O)[C@H]3O)cc(O)c12 [Luteolin-7-O-β-D-glucoside, luteolin-7-O-β-D-glucoside] | – | pIC50 [1]: <4 |
| O=C(OC[C@H]1O[C@@H](OC(=O)c2cc(O)c(O)c(O)c2)[C@H](OC(=O)c2cc(O)c(O)c(O)c2)[C@@H](OC(=O)c2cc(O)c(O)c(O)c2)[C@@H]1OC(=O)c1cc(O)c(O)c(O)c1)c1cc(O)c(O)c(O)c1 [PGG, 1,2,3,4,6-penta-O-galloyl-β-D-glucopyranose] | 25.7 nM | Inhibition mode [2]: non-competitive; Ki ([2]; inhibition constant (Ki)): 12 nM and < 100 nM |
| O=c1c(O)c(-c2ccc(O)c(O)c2)oc2cc(O)cc(O)c12 [Quercetin, quercetin] | – | inhibitory effects against α-glucosidase (α-glucosidase): strong inhibitory effects |
| O=c1c(O[C@@H]2O[C@H](CO)[C@@H](O)[C@H](O)[C@H]2O)c(-c2ccc(O)c(O)c2)oc2cc(O)cc(O)c12 [Quercetin-3-O-glucoside, quercetin-3-O-glucoside] | > 100000 nM | – |
| O=C(O)[C@H]1O[C@@H](Oc2c(-c3ccc(O)c(O)c3)oc3cc(O)cc(O)c3c2=O)[C@H](O)[C@@H](O)[C@@H]1O [Quercetin-3-O-glucuronide, quercetin-3-O-glucuronide] | – | pIC50 [1]: <4 |
| C[C@@H]1O[C@@H](Oc2c(-c3ccc(O)c(O)c3)oc3cc(O)cc(O)c3c2=O)[C@H](O)[C@H](O)[C@H]1O [Quercitrin, quercitrin] | > 100000 nM | – |
| C[C@@H]1O[C@@H](Oc2cc(O)c3c(=O)c(O)c(-c4ccc(O)cc4)oc3c2O)[C@H](O)[C@H](O)[C@H]1O [Rhodionin, rhodionin] | > 100000 nM | – |
| O=C(O)/C=C/c1ccc(O)cc1 [p-coumaric acid] | > 100000 nM | – |
| catechin gallate [CG] | – | Inhibition mode [2]: non-competitive |
